Counter-ions that a name gives are not always drawn.
target: immobilized Aβ fibrils (Homo sapiens, UniProt P05067); test: FAC-MS assay of free Aβ monomer (indicator) binding to immobilized Aβ fibrils in the presence of test compounds; settings: FAC-MS % shift of breakthrough time of free Aβ1-42 monomer (1 μM) on immobilized Aβ fibrils; compounds 1-10 μM in 20 mM NH4OAc, 1% DMSO; void marker M3
Sequence (P05067 672-713 limits assumed): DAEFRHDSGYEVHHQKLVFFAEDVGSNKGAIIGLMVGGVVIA

Compound | % of Shift [%]
[H]/N=C(/N)N[C@H]1[C@H](O)[C@@H](O)[C@H](O[C@@H]2O[C@@H](C)[C@](O)(C=O)[C@H]2O[C@@H]2O[C@@H](CO)[C@H](O)[C@@H](O)[C@@H]2NC)[C@@H](N/C(N)=N\[H])[C@@H]1O [Compound 56501, Streptomycin sulfate, reference compound] | 1
O[C@H]1[C@H](O)[C@@H](O)[C@H](O)[C@@H](O)[C@H]1O [Myo, myo-inositol, reference compound] | 34
CC(C)(C)C(=O)OC1C(O)C(OC(=O)C(C)(C)C)C(OC(=O)C(C)(C)C)C(OC(=O)C(C)(C)C)C1OC(=O)C(C)(C)C (centres unmarked) [Compound 37387002, 2,3,4,5-tetrakis[(2,2-dimethylpropanoyl)oxy]-6-hydroxycyclohexyl pivalate] | 5
O=S(=O)([O-])OC1C(OS(=O)(=O)[O-])C(OS(=O)(=O)[O-])C(OS(=O)(=O)[O-])C(OS(=O)(=O)[O-])C1OS(=O)(=O)[O-].[K+].[K+].[K+].[K+].[K+].[K+] (centres unmarked) [Compound I-6005, myo-inositol hexasulfate hexapotasium, reference compound] | 4
CC(C)C(=O)OC1C(O)C(OC(=O)C(C)C)C(OC(=O)C(C)C)C(OC(=O)C(C)C)C1OC(=O)C(C)C (centres unmarked) [Compound 37387001, 2-hydroxy-3,4,5,6-tetrakis(isobutyryloxy)cyclohexyl 2-methylpropanoate] | 4
CC(C)C(=O)OC1C(OC(=O)C(C)C)C(OC(=O)C(C)C)C(OC(=O)C(C)C)C(OC(=O)C(C)C)C1OC(=O)C(C)C (centres unmarked) [Compound 37387007, 2,3,4,5,6-pentakis(isobutyryloxy)cyclohexyl 2-methylproanoate] | 5
CC(=O)OC1C(OC(=O)CC(C)C)C(OC(=O)CC(C)C)C(OC(=O)CC(C)C)C(OC(=O)CC(C)C)C1OC(=O)CC(C)C (centres unmarked) [Compound 37387013, 2-(acetyloxy)-3,4,5,6-tetrakis[(3-methylbutanoyl)oxy]cyclohexanyl 3-methylbutanoate] | 3

same assay, conditions: FAC-MS screen; shift of free Aβ monomer breakthrough on immobilized Aβ fibrils in presence of compound; scale not given

Compound | Aβ Shift
COC(=O)[C@@H]1C[C@H](O)C[C@H](C(=O)OC)C1 | 1
C=CC1CCC(O)C(N(C)C(=S)Nc2ccccc2)C1 (centres unmarked) | 1
COC(=O)C12CCC(C)(C(O)C1)C2(C)C (centres unmarked) | 1
CC1CCCC(N/C=C2\C(=O)Nc3ccccc32)C1C (centres unmarked) | 2
CC12CC3CC(O)(C1)CC(C(=O)O)(C3)C2 (centres unmarked) | 1
CC(C)C(=O)O[C@@H]1[C@@H](OC(=O)C(C)C)[C@H](OC(=O)C(C)C)[C@H](O)[C@H](OC(=O)C(C)C)[C@H]1OC(=O)C(C)C | 4
CC1CCC(C(C)C)C(OC(=O)C2C3CCCCC32)C1 (centres unmarked) | 0
CC1C(C(=O)Nc2ccccc2)CCCC1(C)C(=O)O (centres unmarked) | 1
CC1CC(NC(=O)c2cccc3ccccc23)CC(C)(C)C1 (centres unmarked) | 0
CC1CC(NC(=O)C2CCC2)CC(C)(C)C1 (centres unmarked) | 0
CC12CC3CC(C)(C1)CC(CNC(=O)c1ccccc1)(C3)C2 | 1
CC12CC3(C)CC(CC(N)=O)(C1)CC(C(N)=O)(C2)C3 | 0
CC(C)(C)C1CC(C(=O)O)CC(C(C)(C)C)C1 (centres unmarked) | 1
CC(O)C#CC1(O)C(C)CCCC1(C)C (centres unmarked) | 1
CC1CC(OC(=O)CN2CCCCC2)CC(C)(C)C1 (centres unmarked) | 1
CC(C)CC(=O)O[C@@H]1[C@@H](OC(=O)CC(C)C)[C@H](OC(=O)CC(C)C)[C@H](O)[C@H](OC(=O)CC(C)C)[C@H]1OC(=O)CC(C)C | 2
CC1CC(NN(C)C)C(C#N)(C#N)C(C)C1(C#N)C#N (centres unmarked) | 2
CC1CCC(C(C)C)C(OC(=O)C[n+]2ccccc2)C1 (centres unmarked) | 1
Cc1nn(CC(=O)NC2CCCC(C)C2C)c2ccccc12 (centres unmarked) | 1
Cc1ccc(C(C)(C)CC(C)NC2CCCC(C)C2C)o1 (centres unmarked) | 1
CNC(=O)C12CC3(C)CC(C)(CC(C)(C3)C1)C2 | 1
CC(=O)C1C2CC3C(C2Cl)C31 (centres unmarked) | 1
CC1CCCC(NC(=O)Cc2cn(C)c3ccccc23)C1C (centres unmarked) | 2
CC(=O)c1[nH]c(C)c(C(=O)NC2CCCC(C)C2C)c1C (centres unmarked) | 1
CC12CC3CC(C)(C1)CC(C(=O)CCC(=O)O)(C3)C2 | 1
Cc1ccc(C(=O)OC2CC(C)CCC2C(C)C)cc1C (centres unmarked) | 2
CC1CCC(COC(=O)C[N+]2(C)CCCCC2)C(C)C1 (centres unmarked) | 2

Compound | Aβ Shift
CC1CCC(C(C)C)C(OCC(O)CN2CCOCC2)C1 (centres unmarked) | 1
CN(C)C(=O)C12CC3(C)CC(C)(CC(C)(C3)C1)C2 | 1
CC12CC3CC(C)(C1)CC(CC(=O)NNC(N)=O)(C3)C2 | 2
CCC(=O)O[C@H]1[C@H](OC(=O)CC)[C@@H](OC(=O)CC)[C@H](OC(=O)CC)[C@@H](OC(=O)CC)[C@H]1OC(=O)CC | 4
CC1CCCC(N2CNc3nc4ccccc4n3C2)C1C (centres unmarked) | 2
CC1CCCC(N2CNC(=S)NC2)C1C (centres unmarked) | 2
CC1CCC(COC(=O)CN2CCOCC2)C(C)C1 (centres unmarked) | 1
CC12CC3CC(C)(C1)CC(C(=O)Nc1nnn[nH]1)(C3)C2 | 1
Nc1ncnc2c1ncn2C1CCC(CO)C(O)C1 (centres unmarked) | 1
Cc1cccc(NC(=O)C23CC4CC(C)(CC(C)(C4)C2)C3)c1 | 2
O=C(O)C1CC(C(=O)O)C(C(=O)O)CC1C(=O)O (centres unmarked) | 1
CC(C)C1CCC(C)C(OC(=O)C2C3CCCCC32)C1 (centres unmarked) | 1
CC(=O)NC12CC3(C)CC(C)(CC(O)(C3)C1)C2 | 1
COC(=O)C12CC3(C)CC(C)(CC(C)(C3)C1)C2 | 1
Cc1cccc(NC(=O)C23CCC(C)(C(O)C2)C3(C)C)n1 (centres unmarked) | 0
O=C(O)C1(O)CC(O)C(O)C(O)C1 (centres unmarked) | 1
CC1(C)CC(=O)C2=C(C1)CC1(C)CC(C)(C)CC2(O)C1 (centres unmarked) | 0
Cc1cc(C(=O)NC2CCCC(C)C2C)c2ccccc2n1 (centres unmarked) | 1
CC12CC3CC(C)(C1)CC(CN)(C3)C2 | 2
CC(=O)OCC12COC(C)(CC1C)CC2C (centres unmarked) | 1
CC12CC3(C)CC(C)(C1)CC(C(=O)NC(C)(C)C)(C2)C3 | 2
CC1(C)CC2(C)CC(O)(C1)C13CCC(C)(C)CC1(C2)O3 (centres unmarked) | 0
CC(C)(C)C1CC(C(=O)O)CC(C(=O)O)C1 (centres unmarked) | 0
COCCNC(=O)NC12CC3(C)CC(C)(CC(C)(C3)C1)C2 | 1
OCC1(CO)CCCC(CO)(CO)C1O | 1
NC12C3C4C5C1C2C(Br)(C43)C51OCCO1 (centres unmarked) | 0
CC(=O)NC12CC3CC(C)(C1)CC(NC(C)=O)(C3)C2 | 1

Compound | Aβ Shift
O=C(O)C1C2C(=O)OC3C(Cl)C1C1(CC1)C32 (centres unmarked) | 0
COc1cccc(C(=O)OC2CC(C)CC(C)C2)c1 (centres unmarked) | 0
CC(CCc1ccc(O)cc1)NC1CCCC(C)C1C (centres unmarked) | 1
CC1CCCC(NC(=O)c2csc3c2CCCC3)C1C (centres unmarked) | 2
CC(C)(C)C(=O)O[C@H]1[C@H](OC(=O)C(C)(C)C)[C@@H](OC(=O)C(C)(C)C)[C@H](OC(=O)C(C)(C)C)[C@@H](OC(=O)C(C)(C)C)[C@H]1OC(=O)C(C)(C)C | 4
O=C1OC2C3CC([C@@H]2I)[C@@H](CO)C13 (some centres unmarked) | 0
CC12CC3CC(C)(C1)CC(C(=O)N1CCOCC1)(C3)C2 | 1
CN(C)C(=S)NC(=O)C12CC3CC(C)(CC(C)(C3)C1)C2 | 1
CC1CCC(COC(=O)CN2CCCCC2)C(C)C1 (centres unmarked) | 1
CC12CC3CC(C)(C1)CC(O)(C3)C2 | 0
CC(=O)O[C@H]1[C@@H](OC(=O)CC(C)C)[C@H](OC(=O)CC(C)C)[C@@H](OC(=O)CC(C)C)[C@H](OC(=O)CC(C)C)[C@H]1OC(=O)CC(C)C | 3
Cc1cc[n+](CC(=O)OC2CC(C)CCC2C(C)C)cc1 (centres unmarked) | 1
CCCCCCCCCC(=O)NC1CCCC(C)C1C (centres unmarked) | 0
COc1ccc(C2(O)C(C)CCCC2C)cc1 (centres unmarked) | 0
CC12CC3(C)CC(C)(C1)CC(NC(=O)N1CCCC1)(C2)C3 | 1
CCCC1CCC(c2ccc(C(C)=O)cc2)CC1C (centres unmarked) | 1
CC(C)=CCCC12CCC(CO)(CO1)C(C)C2 (centres unmarked) | 1
O=S(=O)(c1ccccc1)C1C2CC3C(C2Cl)C31 (centres unmarked) | 0
CC1CCCC(NC(=O)c2n[nH]c(=O)c3ccccc23)C1C (centres unmarked) | 2
CC12CC3CC(C)(C1)CC(CN1CCOCC1)(C3)C2 | 1
COc1cccc(OC)c1C(=O)OC1CC(C)CC(C)C1 (centres unmarked) | 0
OCC1CC(Cl)CC(Cl)C1O (centres unmarked) | 0
CCCCCCCCC(=O)NC1CC(C)CC(C)(C)C1 (centres unmarked) | 0
CC1CCCC(NC(=O)Cn2cc3c(n2)CCCC3)C1C (centres unmarked) | 1
CC1CCN(CC(=O)OC2CC(C)CCC2C(C)C)CC1 (centres unmarked) | 1

— patent US20110028719A1, “SCREENING METHODS FOR AMYLOID BETA MODULATORS” (priority 2006, published 2011)
